Measured values from patent US20260356819A1, “OXOISOINDOLINYL-SUBSTITUTED […] DERIVATIVE AND USE THEREOF” (GLUETACS THERAPEUTICS (SHANGHAI) CO., LTD., priority 2023, published 2026).

What was measured:
Format in all cases: cell-based
Settings in all cases: compounds at 50 nM and 500 nM
IKZF1 = target: T1, IKZF1 (Homo sapiens, UniProt Q13422+Q96SW2); test: Western blot degradation of IKZF1 in hPBMCs (24 h)
T1 construct: The supernatant was aspirated as the extracted total cell protein; endogenous in cells; host or cells: human peripheral blood mononuclear cells (hPBMCs)
How it was run: (§1)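 PBMC Western blot, 24 h treatment; test levels 50 nM and 500 nM. Band density ÷ internal control, normalised → % remaining; degradation (%) = 1 − remaining.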

CK1α = target: T2, CK1α (Homo sapiens, UniProt P48729+Q96SW2); test: Western blot degradation of CK1α in hPBMCs (24 h)
T2 construct: The supernatant was aspirated as the extracted total cell protein; endogenous in cells; host or cells: human peripheral blood mononuclear cells (hPBMCs)
How it was run: as §1

WEE1 = target: T3, WEE1 (Homo sapiens, UniProt P30291+Q96SW2); test: Western blot degradation of WEE1 in hPBMCs (24 h)
T3 construct: The supernatant was aspirated as the extracted total cell protein; endogenous in cells; host or cells: human peripheral blood mononuclear cells (hPBMCs)
How it was run: as §1

IKZF2 = target: T4, IKZF2 (Homo sapiens, UniProt Q96SW2+Q9UKS7); test: Western blot degradation of IKZF2 in hPBMCs (24 h)
T4 construct: The supernatant was aspirated as the extracted total cell protein; endogenous in cells; host or cells: human peripheral blood mononuclear cells (hPBMCs)
How it was run: as §1

IKZF3 = target: T5, IKZF3 (Homo sapiens, UniProt Q96SW2+Q9UKT9); test: Western blot degradation of IKZF3 in hPBMCs (24 h)
T5 construct: The supernatant was aspirated as the extracted total cell protein; endogenous in cells; host or cells: human peripheral blood mononuclear cells (hPBMCs)
How it was run: as §1

GSPT1 = target: T6, GSPT1 (Homo sapiens, UniProt P15170+Q96SW2); test: Western blot degradation of GSPT1 in hPBMCs (24 h)
T6 construct: The supernatant was aspirated as the extracted total cell protein; endogenous in cells; host or cells: human peripheral blood mononuclear cells (hPBMCs)
How it was run: as §1

T4 sequence (Q9UKS7 whole entry): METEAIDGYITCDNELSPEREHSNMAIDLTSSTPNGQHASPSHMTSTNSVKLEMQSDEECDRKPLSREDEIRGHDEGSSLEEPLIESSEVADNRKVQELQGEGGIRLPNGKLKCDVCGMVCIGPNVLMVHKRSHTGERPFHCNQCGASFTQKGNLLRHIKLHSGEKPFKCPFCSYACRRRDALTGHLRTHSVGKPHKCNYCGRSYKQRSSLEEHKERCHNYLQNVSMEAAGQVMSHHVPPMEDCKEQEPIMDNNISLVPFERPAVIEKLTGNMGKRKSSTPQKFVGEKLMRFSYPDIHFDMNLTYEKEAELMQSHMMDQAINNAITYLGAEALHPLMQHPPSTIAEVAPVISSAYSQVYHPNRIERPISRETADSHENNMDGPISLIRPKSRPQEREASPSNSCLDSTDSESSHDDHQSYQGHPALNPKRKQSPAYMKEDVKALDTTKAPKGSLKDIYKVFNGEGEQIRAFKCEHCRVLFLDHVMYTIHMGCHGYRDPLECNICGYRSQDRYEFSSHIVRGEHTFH
T4 sequence (Q96SW2 whole entry): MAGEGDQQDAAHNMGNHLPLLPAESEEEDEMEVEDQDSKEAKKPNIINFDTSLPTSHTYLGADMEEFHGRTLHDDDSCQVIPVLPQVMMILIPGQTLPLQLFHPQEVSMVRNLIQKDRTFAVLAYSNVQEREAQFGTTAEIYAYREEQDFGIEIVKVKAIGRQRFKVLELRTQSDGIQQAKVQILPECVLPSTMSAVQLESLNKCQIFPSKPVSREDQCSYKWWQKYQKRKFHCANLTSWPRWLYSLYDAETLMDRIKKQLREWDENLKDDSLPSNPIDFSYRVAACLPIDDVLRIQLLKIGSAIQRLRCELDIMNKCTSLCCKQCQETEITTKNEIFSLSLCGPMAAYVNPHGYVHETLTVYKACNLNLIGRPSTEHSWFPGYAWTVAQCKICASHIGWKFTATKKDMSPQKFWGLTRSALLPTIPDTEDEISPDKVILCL
T4 sequence (Q16531 whole entry partner): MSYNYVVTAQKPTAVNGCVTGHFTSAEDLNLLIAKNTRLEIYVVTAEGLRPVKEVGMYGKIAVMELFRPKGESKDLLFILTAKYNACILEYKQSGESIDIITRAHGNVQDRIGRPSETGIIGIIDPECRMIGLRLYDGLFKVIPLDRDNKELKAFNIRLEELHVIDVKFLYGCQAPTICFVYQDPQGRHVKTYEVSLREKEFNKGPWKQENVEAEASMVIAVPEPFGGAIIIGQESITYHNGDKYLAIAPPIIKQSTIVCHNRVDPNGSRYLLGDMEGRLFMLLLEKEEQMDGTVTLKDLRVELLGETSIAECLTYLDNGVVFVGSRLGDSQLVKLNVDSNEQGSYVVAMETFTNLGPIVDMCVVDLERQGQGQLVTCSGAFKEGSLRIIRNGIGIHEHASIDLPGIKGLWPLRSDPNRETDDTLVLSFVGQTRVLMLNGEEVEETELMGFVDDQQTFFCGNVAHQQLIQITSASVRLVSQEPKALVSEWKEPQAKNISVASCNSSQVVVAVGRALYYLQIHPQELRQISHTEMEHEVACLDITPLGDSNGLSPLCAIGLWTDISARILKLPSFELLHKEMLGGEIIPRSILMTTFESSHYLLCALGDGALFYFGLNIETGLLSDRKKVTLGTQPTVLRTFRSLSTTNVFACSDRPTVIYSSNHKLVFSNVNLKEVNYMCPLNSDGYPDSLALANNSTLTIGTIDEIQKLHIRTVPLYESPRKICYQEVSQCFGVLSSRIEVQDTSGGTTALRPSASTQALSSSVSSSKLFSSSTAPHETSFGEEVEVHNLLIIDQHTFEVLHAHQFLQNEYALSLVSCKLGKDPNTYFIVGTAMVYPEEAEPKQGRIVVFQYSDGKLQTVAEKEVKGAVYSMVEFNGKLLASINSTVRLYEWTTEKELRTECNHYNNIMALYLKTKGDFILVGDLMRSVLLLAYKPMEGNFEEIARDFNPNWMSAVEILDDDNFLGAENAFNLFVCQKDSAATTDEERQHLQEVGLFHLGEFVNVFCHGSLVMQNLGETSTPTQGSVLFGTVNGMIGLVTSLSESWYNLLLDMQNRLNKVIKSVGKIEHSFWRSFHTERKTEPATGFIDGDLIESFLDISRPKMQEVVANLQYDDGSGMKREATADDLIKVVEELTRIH
T1 sequence (Q13422 whole entry): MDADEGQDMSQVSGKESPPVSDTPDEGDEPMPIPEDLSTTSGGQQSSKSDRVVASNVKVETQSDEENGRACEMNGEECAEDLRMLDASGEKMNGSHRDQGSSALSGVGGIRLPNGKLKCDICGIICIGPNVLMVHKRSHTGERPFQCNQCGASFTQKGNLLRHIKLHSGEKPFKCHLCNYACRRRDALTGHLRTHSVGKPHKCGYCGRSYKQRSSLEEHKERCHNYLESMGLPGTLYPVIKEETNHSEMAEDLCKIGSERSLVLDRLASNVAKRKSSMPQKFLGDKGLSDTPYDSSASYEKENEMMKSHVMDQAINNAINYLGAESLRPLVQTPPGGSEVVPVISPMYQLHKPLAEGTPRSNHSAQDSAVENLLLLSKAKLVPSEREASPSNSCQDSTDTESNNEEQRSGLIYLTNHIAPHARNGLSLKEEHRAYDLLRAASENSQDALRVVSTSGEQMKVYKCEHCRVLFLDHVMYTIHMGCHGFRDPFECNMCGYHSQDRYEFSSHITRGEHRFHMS
T1 sequence (Q96SW2 whole entry): as the sequence (Q96SW2 whole entry) above
T1 sequence (Q16531 whole entry partner): as the sequence (Q16531 whole entry partner) above
T5 sequence (Q9UKT9 whole entry): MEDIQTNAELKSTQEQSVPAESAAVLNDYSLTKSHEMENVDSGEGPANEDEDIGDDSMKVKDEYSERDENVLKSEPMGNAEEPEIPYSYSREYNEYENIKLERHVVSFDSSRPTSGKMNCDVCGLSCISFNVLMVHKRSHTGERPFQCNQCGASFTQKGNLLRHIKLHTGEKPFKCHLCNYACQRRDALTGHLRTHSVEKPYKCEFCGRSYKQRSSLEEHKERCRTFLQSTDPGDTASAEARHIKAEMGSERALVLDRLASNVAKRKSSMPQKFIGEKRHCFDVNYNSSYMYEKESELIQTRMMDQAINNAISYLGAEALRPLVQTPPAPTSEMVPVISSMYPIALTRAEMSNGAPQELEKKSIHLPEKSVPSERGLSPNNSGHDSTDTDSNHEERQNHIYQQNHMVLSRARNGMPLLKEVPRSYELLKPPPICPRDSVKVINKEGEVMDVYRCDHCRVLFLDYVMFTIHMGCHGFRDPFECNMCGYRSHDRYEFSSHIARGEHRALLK
T5 sequence (Q96SW2 whole entry): as the sequence (Q96SW2 whole entry) above
T5 sequence (Q16531 whole entry partner): as the sequence (Q16531 whole entry partner) above
T3 sequence (P30291 whole entry): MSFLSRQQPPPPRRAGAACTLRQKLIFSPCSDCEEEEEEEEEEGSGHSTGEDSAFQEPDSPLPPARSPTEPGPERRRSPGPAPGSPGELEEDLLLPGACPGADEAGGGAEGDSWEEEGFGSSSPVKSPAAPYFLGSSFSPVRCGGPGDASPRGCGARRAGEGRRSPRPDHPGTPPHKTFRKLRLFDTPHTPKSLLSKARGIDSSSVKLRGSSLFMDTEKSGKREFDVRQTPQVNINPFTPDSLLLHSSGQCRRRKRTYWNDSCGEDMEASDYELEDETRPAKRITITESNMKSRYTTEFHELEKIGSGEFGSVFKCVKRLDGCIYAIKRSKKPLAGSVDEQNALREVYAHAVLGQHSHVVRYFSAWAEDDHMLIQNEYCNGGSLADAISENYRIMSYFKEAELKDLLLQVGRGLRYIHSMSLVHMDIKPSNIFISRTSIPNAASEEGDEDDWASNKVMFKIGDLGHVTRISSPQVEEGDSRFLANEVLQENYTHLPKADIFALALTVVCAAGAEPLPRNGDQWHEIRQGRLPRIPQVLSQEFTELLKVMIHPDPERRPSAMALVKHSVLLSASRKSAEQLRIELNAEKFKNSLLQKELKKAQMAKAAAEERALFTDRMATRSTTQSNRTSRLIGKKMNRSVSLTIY
T3 sequence (Q96SW2 whole entry): as the sequence (Q96SW2 whole entry) above
T3 sequence (Q16531 whole entry partner): as the sequence (Q16531 whole entry partner) above
T6 sequence (P15170 whole entry): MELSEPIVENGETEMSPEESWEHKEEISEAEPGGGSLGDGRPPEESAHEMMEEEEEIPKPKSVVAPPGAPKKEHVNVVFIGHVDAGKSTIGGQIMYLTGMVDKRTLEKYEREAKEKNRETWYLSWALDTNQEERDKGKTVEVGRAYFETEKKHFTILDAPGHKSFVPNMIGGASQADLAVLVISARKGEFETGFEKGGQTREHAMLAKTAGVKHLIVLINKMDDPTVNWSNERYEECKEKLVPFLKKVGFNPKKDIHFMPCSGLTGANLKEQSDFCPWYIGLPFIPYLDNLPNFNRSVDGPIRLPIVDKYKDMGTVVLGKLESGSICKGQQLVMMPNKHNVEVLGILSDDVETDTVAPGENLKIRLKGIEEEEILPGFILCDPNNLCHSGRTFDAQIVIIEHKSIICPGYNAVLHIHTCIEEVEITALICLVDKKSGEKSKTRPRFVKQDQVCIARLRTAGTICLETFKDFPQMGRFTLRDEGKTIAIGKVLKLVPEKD
T6 sequence (Q96SW2 whole entry): as the sequence (Q96SW2 whole entry) above
T6 sequence (Q16531 whole entry partner): as the sequence (Q16531 whole entry partner) above

SMILES | IKZF1 substrate protein remaining % (IKZF1) | CK1α substrate protein remaining % (CK1α) | WEE1 substrate protein remaining % (WEE1) | IKZF2 substrate protein remaining % (IKZF2) | IKZF3 substrate protein remaining % (IKZF3) | GSPT1 substrate protein remaining % (GSPT1)
O=C1CCN(N2Cc3cc(CN4CCC(c5ccon5)CC4)ccc3C2=O)C(=O)N1 [GT-07495, 1-(5-((4-(isoxazol-3-yl)piperidin-1-yl)methyl)-1-oxoisoindolin-2-yl)dihydropyrimidine-2,4(1H,3H)-dione] | B (80%< substrate protein remaining % ≤100%) | A (0% ≤ substrate protein remaining % ≤80%) | B (80%< substrate protein remaining % ≤100%) | B (80%< substrate protein remaining % ≤100%) | B (80%< substrate protein remaining % ≤100%) | A (0% ≤ substrate protein remaining % ≤80%)
O=C1CCN(N2Cc3cc(CN4CCN(c5noc6cc(F)ccc56)CC4)ccc3C2=O)C(=O)N1 [GT-07496, 1-(5-((4-(6-fluorobenzo[d]isoxazol-3-yl)piperazin-1-yl)methyl)-1-oxoisoindolin-2-yl)dihydropyrimidine-2,4(1H,3H)-dione] | B (80%< substrate protein remaining % ≤100%) | A (0% ≤ substrate protein remaining % ≤80%) | B (80%< substrate protein remaining % ≤100%) | B (80%< substrate protein remaining % ≤100%) | B (80%< substrate protein remaining % ≤100%) | A (0% ≤ substrate protein remaining % ≤80%)
O=C1CCN(N2Cc3cc(CN4CCN(c5noc6ccncc56)CC4)ccc3C2=O)C(=O)N1 [GT-07497, 1-(5-((4-(isoxazolo[4,5-c]pyridin-3-yl)piperazin-1-yl)methyl)-1-oxoisoindolin-2-yl)dihydropyrimidine-2,4(1H,3H)-dione] | A (0% ≤ substrate protein remaining % ≤80%) | A (0% ≤ substrate protein remaining % ≤80%) | A (0% ≤ substrate protein remaining % ≤80%) | A (0% ≤ substrate protein remaining % ≤80%) | B (80%< substrate protein remaining % ≤100%) | A (0% ≤ substrate protein remaining % ≤80%)
O=C1CCN(N2Cc3cc(CN4CCN(c5nsc6cc(F)ccc56)CC4)ccc3C2=O)C(=O)N1 [GT-07500, 1-(5-((4-(6-fluorobenzo[d]isothiazol-3-yl)piperazin-1-yl)methyl)-1-oxoisoindolin-2-yl)dihydropyrimidine-2,4(1H,3H)-dione] | A (0% ≤ substrate protein remaining % ≤80%) | A (0% ≤ substrate protein remaining % ≤80%) | A (0% ≤ substrate protein remaining % ≤80%) | B (80%< substrate protein remaining % ≤100%) | B (80%< substrate protein remaining % ≤100%) | A (0% ≤ substrate protein remaining % ≤80%)
O=C1CCN(N2Cc3cc(CN4CCN(c5c[nH]c6ncccc56)CC4)ccc3C2=O)C(=O)N1 [GT-07502, 1-(5-((4-(1H-pyrrolo[2,3-b]pyridin-3-yl)piperazin-1-yl)methyl)-1-oxoisoindolin-2-yl)dihydropyrimidine-2,4(1H,3H)-dione] | A (0% ≤ substrate protein remaining % ≤80%) | A (0% ≤ substrate protein remaining % ≤80%) | A (0% ≤ substrate protein remaining % ≤80%) | B (80%< substrate protein remaining % ≤100%) | B (80%< substrate protein remaining % ≤100%) | A (0% ≤ substrate protein remaining % ≤80%)
O=C1CCN(N2Cc3cc(CN4CCC(n5cnc6cc(F)ccc65)CC4)ccc3C2=O)C(=O)N1 [GT-07503, 1-(5-((4-(5-fluoro-1H-benzo[d]imidazol-1-yl)piperidin-1-yl)methyl)-1-oxoisoindolin-2-yl)dihydropyrimidine-2,4(1H,3H)-dione] | A (0% ≤ substrate protein remaining % ≤80%) | A (0% ≤ substrate protein remaining % ≤80%) | A (0% ≤ substrate protein remaining % ≤80%) | B (80%< substrate protein remaining % ≤100%) | B (80%< substrate protein remaining % ≤100%) | A (0% ≤ substrate protein remaining % ≤80%)
O=C1CCN(N2Cc3cc(CN4CCC(c5n[nH]c6cc(F)ccc56)CC4)ccc3C2=O)C(=O)N1 [GT-07508, 1-(5-((4-(6-fluoro-1H-indazol-3-yl)piperidin-1-yl)methyl)-1-oxoisoindolin-2-yl)dihydropyrimidine-2,4(1H,3H)-dione] | A (0% ≤ substrate protein remaining % ≤80%) | A (0% ≤ substrate protein remaining % ≤80%) | A (0% ≤ substrate protein remaining % ≤80%) | A (0% ≤ substrate protein remaining % ≤80%) | B (80%< substrate protein remaining % ≤100%) | A (0% ≤ substrate protein remaining % ≤80%)
O=C1CCN(N2C(=O)c3ccc(CN4CCC(c5noc6ccccc56)CC4)cc3C2=O)C(=O)N1 [GT-07522, 5-((4-(benzo[d]isoxazol-3-yl)piperidin-1-yl)methyl)-2-(2,4-dioxotetrahydropyrimidin-1(2H)-yl)isoindoline-1,3-dione] | A (0% ≤ substrate protein remaining % ≤80%) | A (0% ≤ substrate protein remaining % ≤80%) | A (0% ≤ substrate protein remaining % ≤80%) | A (0% ≤ substrate protein remaining % ≤80%) | B (80%< substrate protein remaining % ≤100%) | A (0% ≤ substrate protein remaining % ≤80%)
O=C1CCN(N2C(=O)c3ccc(CN4CCC(c5ccon5)CC4)cc3C2=O)C(=O)N1 [GT-07523, 2-(2,4-dioxotetrahydropyrimidin-1(2H)-yl)-5-((4-(isoxazol-3-yl)piperidin-1-yl)methyl)isoindoline-1,3-dione] | A (0% ≤ substrate protein remaining % ≤80%) | A (0% ≤ substrate protein remaining % ≤80%) | A (0% ≤ substrate protein remaining % ≤80%) | A (0% ≤ substrate protein remaining % ≤80%) | B (80%< substrate protein remaining % ≤100%) | A (0% ≤ substrate protein remaining % ≤80%)
O=C1CCN(N2C(=O)c3ccc(CN4CCN(c5noc6cc(F)ccc56)CC4)cc3C2=O)C(=O)N1 [GT-07524, 2-(2,4-dioxotetrahydropyrimidin-1(2H)-yl)-5-((4-(6-fluorobenzo[d]isoxazol-3-yl)piperazin-1-yl)methyl)isoindoline-1,3-dione] | A (0% ≤ substrate protein remaining % ≤80%) | B (80%< substrate protein remaining % ≤100%) | A (0% ≤ substrate protein remaining % ≤80%) | A (0% ≤ substrate protein remaining % ≤80%) | B (80%< substrate protein remaining % ≤100%) | A (0% ≤ substrate protein remaining % ≤80%)
